Consider 1 compound from patent publication US10130611B2, “Use of benzo-heterocycle derivatives for preventing and treating cancer or for inhibiting cancer metastasis” (MEDICINAL BIOCONVERGENCE RESEARCH CENTER, priority 2009, dated 2018).

Molecules are shown by their SMILES.

The target of one assay is T1, KRS-AIMP2 (Homo sapiens, UniProt Q15046).
T1 construct: expressed in transfected cells; host or cells: yeast (EGY/SH is stated for the KRS/LR pair)
Description: Yeast two hybrid specificity test, LexA-KRS/B42-AIMP2 pair. To be noted: compound at 50 μg/ml, DMSO control 1.3204. Format: cell-based. As to the method:
(§1) On the compound of the present invention obtained by screening a library of compounds, the extent of inhibition on the interaction between KRS and laminin receptor (67LR) was determined by a yeast two hybrid assay, as described below. KRS, LR, AIMP2, AIMP3 and MRS were cloned at LexA vector (clontech) and B42 vector (clontech) each so as to produce required vectors. From among the vectors, LexA-KRS vector and B42-LR vector were co-transformed into yeast EGY/SH cells, and then the yeast cells were diluted to an absorbance (540 nm wavelength) of 0.2 in galactose medium not containing uracil (Ura), histidine (His), tryptophane (Trp) and leucine (Leu), and placed in an amount of 200 u in a 96 well plate. 1 μl of each compound at a concentration of 10 mg/ml was placed in each well, incubated for 6 days, and the absorbance was measured at 540 nm. […] The inhibitory specificity of the selected compound was tested by using two different interaction pairs such as LexA-KRS/B42-AIMP2 and LexA-MRS/B42-AIMP3. […]

For a further assay, the system named is A549 cells. Description: Cell protein synthesis ([35S]methionine incorporation). Format: cell-based, human. To be noted: KL1 at indicated concentrations, [35S]methionine 2 hours. How it is done:
On MMP2 activity (FIG. 37) and cell migration (FIGS. 38 and 39), KL1-dose-dependent effect was measured. For the test on the cell migration, the cells were treated with KL1 for 8 hours. In FIG. 40, in order to see the effect of KL1 on protein synthesis of cells, A549 cells were treated with KL1 at indicated concentrations, and starved in methionine-free medium. Then, [^35S] methionine was added thereto for 2 hours. Then, the cells were incubated in complete medium for 4 hours, and the level of added methionine was measured by a scintillation counter. In FIG. 41, KL1-dose-dependent cytotoxicity was measured by using A549 cells. In FIG. 42, the effect of KL1 on cancer metastasis was measured according to the method as described above. In each group, 6 mice were included, and KL1 was abdominally injected for 3 weeks, in a dose of 30 mg/kg once a day. Then, the mice were sacrificed. The metastasized tumor nodules over 1 mm in diameter were counted, and their average was calculated (left). The photograph of a representative lung is shown at the right side. […]
A549 cells were treated with the compound (2-[2-(4-methyl-benzoylimino)-benzothiazole-3-yl]-butyric acid, CAND-KL1 or KL1) represented by Formula 15, at indicated concentrations. […] They were lysed, and the radiation dose of lysed cells was measured by a scintillation counter.

Another assay deals with T2, MRS-AIMP3 (Homo sapiens, UniProt P56192).
T2 construct: expressed in transfected cells; host or cells: yeast
T2 sequence (P56192 1-900): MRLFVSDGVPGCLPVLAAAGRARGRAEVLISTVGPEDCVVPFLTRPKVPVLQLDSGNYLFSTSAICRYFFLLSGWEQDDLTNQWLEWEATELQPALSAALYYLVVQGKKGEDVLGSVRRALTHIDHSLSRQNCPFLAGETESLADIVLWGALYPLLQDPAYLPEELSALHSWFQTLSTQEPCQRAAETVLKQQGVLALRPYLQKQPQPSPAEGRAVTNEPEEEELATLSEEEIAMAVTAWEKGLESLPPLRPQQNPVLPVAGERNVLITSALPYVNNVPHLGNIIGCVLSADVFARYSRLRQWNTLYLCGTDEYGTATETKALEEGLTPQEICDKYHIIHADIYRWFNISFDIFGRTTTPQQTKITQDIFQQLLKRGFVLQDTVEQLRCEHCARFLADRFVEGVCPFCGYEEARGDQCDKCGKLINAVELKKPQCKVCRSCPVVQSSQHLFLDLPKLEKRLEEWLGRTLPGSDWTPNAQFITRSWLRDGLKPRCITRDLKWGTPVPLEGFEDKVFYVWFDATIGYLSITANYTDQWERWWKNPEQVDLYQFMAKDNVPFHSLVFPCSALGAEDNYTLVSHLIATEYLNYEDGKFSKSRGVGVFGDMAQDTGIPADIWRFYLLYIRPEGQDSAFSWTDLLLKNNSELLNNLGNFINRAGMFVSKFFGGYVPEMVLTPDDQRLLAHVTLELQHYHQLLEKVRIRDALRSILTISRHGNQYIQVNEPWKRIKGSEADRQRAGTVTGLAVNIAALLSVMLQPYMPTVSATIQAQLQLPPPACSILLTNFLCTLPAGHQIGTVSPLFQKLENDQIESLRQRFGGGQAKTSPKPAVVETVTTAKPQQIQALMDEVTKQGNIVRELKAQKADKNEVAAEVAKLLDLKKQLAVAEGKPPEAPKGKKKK
Description: Yeast two hybrid specificity test, LexA-MRS/B42-AIMP3 pair. Particulars: compound at 50 μg/ml, DMSO control 1.4732. Format: cell-based. As to the method: as §1

T1 sequence (Q15046 whole entry): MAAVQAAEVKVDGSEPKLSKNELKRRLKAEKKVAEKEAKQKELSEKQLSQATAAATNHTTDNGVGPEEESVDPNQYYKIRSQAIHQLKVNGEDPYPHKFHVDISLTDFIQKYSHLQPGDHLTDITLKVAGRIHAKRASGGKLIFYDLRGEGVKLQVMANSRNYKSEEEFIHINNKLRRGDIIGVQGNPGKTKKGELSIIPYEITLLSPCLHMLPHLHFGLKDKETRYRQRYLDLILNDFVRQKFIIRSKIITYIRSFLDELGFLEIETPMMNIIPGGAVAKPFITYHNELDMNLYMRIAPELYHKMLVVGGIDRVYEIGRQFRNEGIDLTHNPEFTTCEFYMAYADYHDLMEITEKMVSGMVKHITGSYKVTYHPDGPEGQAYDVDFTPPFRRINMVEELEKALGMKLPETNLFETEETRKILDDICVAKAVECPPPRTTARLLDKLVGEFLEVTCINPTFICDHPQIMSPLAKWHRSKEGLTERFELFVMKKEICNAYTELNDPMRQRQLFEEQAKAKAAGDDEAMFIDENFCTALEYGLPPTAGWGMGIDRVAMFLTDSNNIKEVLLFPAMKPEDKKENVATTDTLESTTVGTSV

For `CCC(C(=O)O)n1/c(=N/C(=O)c2ccc(C)cc2)sc2ccccc21` (stereo not drawn) [Compound of formula 15, 2-[2-(4-Methyl-benzoylimino)-benzothiazol-3-yl]-butyric acid], on KRS-AIMP2, the “KRS-AIMP2 (yeast growth, OD level)” value worked out at 0.9497. Also, the intracellular protein synthesis result in the assay on A549 cells is on record as “not influenced”. Besides, the “MRS-AIMP3 (yeast growth, OD level)” value on MRS-AIMP3 was found to be 1.2443.
